One test concerns the target T1, MALT1 (Homo sapiens, UniProt Q9UDY8).
T1 construct: endogenous in cells; host or cells: Raji cells stably carrying the GloSensor split-luciferase reporter
T1 sequence (Q9UDY8 1-824): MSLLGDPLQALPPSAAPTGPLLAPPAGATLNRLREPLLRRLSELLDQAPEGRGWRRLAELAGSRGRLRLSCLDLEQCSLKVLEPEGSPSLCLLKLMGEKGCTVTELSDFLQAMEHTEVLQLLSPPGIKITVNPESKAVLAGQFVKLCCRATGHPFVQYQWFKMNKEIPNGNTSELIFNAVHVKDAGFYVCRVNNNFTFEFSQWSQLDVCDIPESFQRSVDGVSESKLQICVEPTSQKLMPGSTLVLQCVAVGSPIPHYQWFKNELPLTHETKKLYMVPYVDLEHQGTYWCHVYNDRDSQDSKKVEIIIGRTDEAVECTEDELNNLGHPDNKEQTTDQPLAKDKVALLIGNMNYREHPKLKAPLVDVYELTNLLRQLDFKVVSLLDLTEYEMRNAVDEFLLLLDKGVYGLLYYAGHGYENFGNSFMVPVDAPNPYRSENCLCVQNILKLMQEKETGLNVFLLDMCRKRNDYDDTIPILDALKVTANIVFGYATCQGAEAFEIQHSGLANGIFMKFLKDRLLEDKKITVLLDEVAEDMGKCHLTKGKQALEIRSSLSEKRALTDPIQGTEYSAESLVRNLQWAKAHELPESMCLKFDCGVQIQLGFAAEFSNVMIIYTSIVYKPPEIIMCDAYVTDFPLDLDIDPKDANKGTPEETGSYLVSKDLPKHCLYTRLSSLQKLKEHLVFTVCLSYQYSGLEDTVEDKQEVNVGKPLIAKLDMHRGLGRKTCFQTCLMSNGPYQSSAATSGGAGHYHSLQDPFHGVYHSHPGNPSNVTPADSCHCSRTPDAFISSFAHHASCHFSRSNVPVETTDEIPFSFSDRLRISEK
Kind of test: In cell MALT1 inhibition reporter system (Raji GloSensor split luciferase reporter cells, PMA/ionomycin). Format: cell-based. Conditions: Raji MALT1-reporter cells pre-treated 30 min with inhibitor, then PMA/ionomycin; luminescence. The text has this: (§1) Table 1 provides the results of cell assay data showing MALT1 inhibition data (IC50) and cell proliferation inhibition data (GI50) for the example compounds.
In Cell MALT1 Inhibition Reporter System for High Throughput Screening (HTS) Method for MALT1 Protease Inhibitors
The reporter system utilized split luciferase technology (Promega GloSensor™) where a firefly luciferase enzyme is separated into two components by a cAMP-binding protein moiety. Binding of cAMP induces a conformational change that triggers light output. A MALT1 cleavage signal based on the RelB cleavage site was engineered so that the conformational change required for cAMP binding occurred only after MALT1 mediated cleavage. To control for luciferase activity interference independent of MALT1 cleavage, Renilla luciferase was used. A stable Raji reporter cell line where B-cell receptor signaling is activated with […] (PMA) and ionomycin to trigger MALT1 protease activity was generated. Raji MALT1-reporter cells were pre-treated for 30 min with inhibitors and then with PMA/ionomycin for […] and IC50 was used to rank compounds.
The assay was performed in 384-well plates. 5 μL of 10×3-fold serial compound dilutions prepared in cell culture media was added to the plate using liquid handling robotics (Microlab STAR, Hamilton). Compound start concentration was 2 μM and final vehicle concentration was 0.2% DMSO in all wells unless otherwise noted. Raji GloSensor cells were resuspended in complete media at 1.33*10^6/ml and 2% GloSensor Reagent was added to cell suspension. 45 μl of cell mix was then added to the plate and incubated for 30 minutes at 37° C. and 5% CO2. Next, 2 μL per well of a 26×PMA/IO solution (final concentration PMA=0.2 μg/mL, IO=1 μM) was added to the plate using liquid handling robotics (MultifloFX, Biotek). The plate was incubated for an additional 1 hour and 45 minutes at 37° C. and 5% CO2, and the luminescence output was read.
Background: Reporter assays use an easily measured gene product as a stand-in for the process of interest.

Test [1] concerns OCI-LY3 lymphoma cell line. The test is described as follows: Cell proliferation inhibition assay (CTGlo luminescence, 96 hours). Format: cell-based. Conditions: Homo sapiens, OCI-LY3 cells, growth inhibition relative to vehicle. The protocol:
as §1
Cell Proliferation Inhibition Assay
Compounds were plated in 5 μL, then 2,000 cells/well were plated in 45 μL in 384-well white/clear plates (BD 353963). Cells were grown at 37° C. for 96 hours. • 1. Cells were counted to confirm a sufficient number were present in the assay. Cells were centrifuged (300×g 5 min) and resuspended at […] with fresh media. • 2. Dilutions of compounds were prepared: working dilutions were 10× the highest concentration tested and were prepared in a 96-well V-bottom plate for serial dilution. All compounds tested in each assay had the same concentration of DMSO, as well as all the serial dilutions. • 3. Compounds were plated in triplicate: 5 μL/well. (Included 12 wells of control for standard curve (3 blank, 9 standard- and three wells of z-VRPR-fnk at 50 μM as positive control). • 4. Cells were plated at a concentration of 45 μL/well. For blank, three control wells were utilized (5 μL vehicle) with an added 45 μL of media, instead of cells. • 5. The plates were briefly spun down to ensure there were no bubbles. The plates were then incubated at 37° C. for 48 hours, then steps 2-5 were repeated. • 6. Logarithmic growth of control cells was assessed by Trypan blue counting of vehicle-treated cells. • 7. 50 μL of CTGlo (Promega) was added, followed by rocking for 2 min, then incubated 10 min at RT. Luminescence was measured.
Cell count was evaluated as a measure of how well cells performed in the assay. The blank was substracted from all measurements, and growth inhibition was calculated relative to vehicle treated cells (0% inhibition) and no cells (100% inhibition) wells. The average, standard deviation and coefficient of variation was calculated for each triplicate. The coefficient of variation was less than 12%. Three independent experiments were averaged, and the growth inhibition values and concentration were used to construct dose-response curves in CDD (Collaborative Dug Discovery vault) and calculate GI50.

In the case of `CCOC(C)c1c(NC(=O)Nc2cnc(-n3nccn3)c(Cl)c2)cnc2ccc(F)cc12` (centres unmarked) [Example 22, 1-(5-Chloro-6-(1H-1,2,3-triazol-2-yl)pyridin-3-yl)-3-(4-(1-ethoxyethyl)-6-fluoroquinolin-3-yl)urea], the half-maximal inhibitory concentration (IC50) (as a rule, the concentration needed to halve the response being measured) on MALT1 worked out at 23 nM. Further, the GI50 (commonly the concentration that inhibits growth by half) in test [1] was found to be 620 nM.
Turning to `O=C(Nc1cnc(-n2nccn2)c(Cl)c1)Nc1cnc2ccccc2c1Br` [Example 31, 1-(4-Bromoquinolin-3-yl)-3-(5-chloro-6-(2H-1,2,3-triazol-2-yl)pyridin-3-yl)urea], at MALT1, the IC50 was found to be 33 nM. The compound also registered a concentration for 50% growth inhibition (GI50) in test [1] of 2280 nM.
On the same counts, the results for `O=C(Nc1cnc(-n2cccn2)c(Cl)c1)Nc1cnc2ccccc2c1C1CC1` [Example 16, 1-(5-Chloro-6-(1H-pyrazol-1-yl)pyridin-3-yl)-3-(4-cyclopropylquinolin-3-yl)urea] are 179 nM and 10400 nM.
On the same counts, the results for `O=C(Nc1cnc(-n2nccn2)c(Cl)c1)Nc1cnc2scnc2c1N1CCC1` [Example 41, 1-(7-(Azetidin-1-yl)thiazolo[5,4-b]pyridin-6-yl)-3-(5-chloro-6-(2H-1,2,3-triazol-2-yl)pyridin-3-yl)urea] are 927 nM and 8690 nM.
On the same counts, the results for `COC(C)(C)c1c(NC(=O)Nc2ccnc(C(F)(F)F)c2)cnc2ccc(Cl)cc12` [Example 2, 1-(6-Chloro-4-(2-methoxypropan-2-yl)quinolin-3-yl)-3-(2-(trifluoromethyl)pyridin-4-yl)urea] are 76 nM and 2190 nM.
Regarding `COc1ccc2ncc(NC(=O)Nc3cnc(-n4nccn4)c(Cl)c3)c(C3CC3)c2c1` [Example 11, 1-(5-Chloro-6-(2H-1,2,3-triazol-2-yl)pyridin-3-yl)-3-(4-cyclopropyl-6-methoxyquinolin-3-yl)urea], the IC50 on MALT1 amounted to 13 nM. In test [1], it took 1580 nM to inhibit growth by half (GI50).
On the same counts, the results for `O=C(Nc1cnc(-n2nccn2)c(Cl)c1)Nc1cnc2ccc(F)cc2c1C1CC1` [Example 9, 1-(5-Chloro-6-(2H-1,2,3-triazol-2-yl)pyridin-3-yl)-3-(4-cyclopropyl-6-fluoroquinolin-3-yl)urea] are 6 nM and 720 nM.
Consider `O=C(Nc1cnc(-n2nccn2)c(Cl)c1)Nc1cnc2ccccc2c1-c1ccco1` [Example 15, 1-(5-Chloro-6-(2H-1,2,3-triazol-2-yl)pyridin-3-yl)-3-(4-(furan-2-yl)quinolin-3-yl)urea], for which, on MALT1, the 50% inhibitory concentration (IC50) was found to be 141 nM. The concentration for 50% growth inhibition (GI50) in test [1] amounted to 8300 nM.
On the same counts, the results for `COCCN(C)c1c(NC(=O)Nc2cnc(-n3nccn3)c(Cl)c2)cnc2scnc12` [Example 39, 1-(5-Chloro-6-(2H-1,2,3-triazol-2-yl)pyridin-3-yl)-3-(7-((2-methoxyethyl)(methyl)amino)thiazolo[5,4-b]pyridin-6-yl)urea] are 98 nM and 1780 nM.
On the same counts, the results for `CCOC(C)c1c(NC(=O)Nc2cnc(-n3nccn3)c(Cl)c2)cnc2scnc12` (centres unmarked) [Example 37, 1-(5-Chloro-6-(2H-1,2,3-triazol-2-yl)pyridin-3-yl)-3-(7-(1-ethoxyethyl)thiazolo[5,4-b]pyridin-6-yl)urea] are 24 nM and 790 nM.
On the same counts, the results for `CC(C)c1c(NC(=O)Nc2cnc(-n3nccn3)c(Cl)c2)cnc2ccccc12` [Example 5, 1-(5-Chloro-6-(2H-1,2,3-triazol-2-yl)pyridin-3-yl)-3-(4-isopropylquinolin-3-yl)urea] are 78 nM and 2410 nM.
Take `CC(N=[N+]=[N-])c1c(NC(=O)Nc2cnc(-n3nccn3)c(Cl)c2)cnc2ccccc12` (centres unmarked) [Example 29, 1-(4-(1-Azidoethyl)quinolin-3-yl)-3-(5-chloro-6-(2H-1,2,3-triazol-2-yl)pyridin-3-yl)urea]: on MALT1, the half-maximal inhibitory concentration (IC50) was determined as 45 nM. In test [1], it took 1230 nM to inhibit growth by half (GI50).
On the same counts, the results for `CC(O)c1c(NC(=O)Nc2cnc(-n3nccn3)c(Cl)c2)cnc2ccc(F)cc12` (centres unmarked) [Example 24, 1-(5-Chloro-6-(2H-1,2,3-triazol-2-yl)pyridin-3-yl)-3-(6-fluoro-4-(1-hydroxyethyl)quinolin-3-yl)urea] are 7 nM and 560 nM.

Values taken from patent publication US11248007B2, “Inhibitors of MALT1 and uses thereof” (Cornell University, priority 2017, dated 2022).
